The values that follow come from patent US10011571B2, “Preparation method for aromatic heterocyclic compound used as selective JAK3 and/or JAK1 kinase inhibitor and application of aromatic heterocyclic compound” (SHENZHEN CHIPSCREEN BIOSCIENCES, LTD., priority 2014, dated 2018).

What is called IC50 is the point on the concentration scale where inhibition reaches its midpoint. As usually defined, the GI50 is the concentration giving 50% growth inhibition. Lower therefore signals greater sensitivity of the cells.

One test concerns the target Flt1 (Homo sapiens (Human), UniProt P17948). The test can be described thus: Eurofins IC50Profiler radiometric kinase assay, Flt1. The following applies: 9 semilog concentrations. In kind it is biochemical. The source says:
A proportion of the compounds of the present invention are subjected to kinase profile screening (KinaseProfiler™)) and enzymatic inhibitory activity (IC50Profiler™)) assay by entrusting Eurofins company (http://www.eurofins.com). Besides the kinases in the JAK family, the kinases that have been screened for their activity also include most Group 3F and Group 4 kinases (ITK, BLK, TBK1, VEGFRs, ERBBs, etc.), and blood system related kinases (Zhang J. et al. 2009, Nat. Rev. Cancer., 9: 28-39). The concentration of the test compound for kinase profile screening is 1 μM, and a gradient of 9 semilog concentration gradients are used to determine IC50. Detection is carried out according to standard procedure of Eurofins Company. Briefly, according to the requirements of different kinase reactions, 0.2 μL test compound (50 μM, dissolved in dimethyl sulfoxide (DMSO)) is added to reaction buffer containing specific kinase (the buffer system containing 20 mM MOPS, 1 mM EDTA, 0.01% Brij-35, 5% Glycerol, 0.1% β-mercaptoethanol, 1 mg/mL BSA, or 50 mM TRIS, 0.1 mM EGTA, 0.1 mM Na3VO4, 0.1% β-mercaptoethanol, 1 mg/mL BSA, based on the type of kinase used). Subsequently, a kinase specific substrate at a final concentration of 50 μM (specific substrate used for specific kinase), 10 mM Mg Acetate and isotope-labeled γ-^33P ATP (radio-activity of about 500 cpm/pmol) are sequentially added to a total volume of 10 μL for the reaction system. After incubation at room temperature for 40 min, the reaction is terminated by adding 3% phosphoric acid solution. The mixture is then transferred to a filter-type low temperature spray dryer (P30 filtermat), and washed by 75 mM phosphoric acid solution for 3 times and by methanol once. After drying, radio-activity is detected. For specific procedure, see the standard procedure provided by Eurofins Company: http://www.eurofins.com/media/9724077/kinaseprofiler_assay_protocol_guide_eurofins_v64.pdf).

A further test deals with HUVEC cells. Put plainly: Cell growth activity assay (MTS), HUVEC cell model. It is filed as cell-based. The note with it: Homo sapiens, 72 h; for activity at 10 µM: read-out: HUVEC % growth rate @10 μM. From the text:
MTS assay is a routine method for cell toxicity detection. The basic principle is based on the capacity of dehydrogenase in the mitochondria of living cells to reduce a novel yellow […] MTS to formazan, so that the amount of living cells is proportional to the amount of formazan product by detecting the absorbance at 490 nm (OD), thereby speculating the amount of living cells according to the OD value, and understanding the capacity of the test compound to inhibit the growth of cells or to kill the cells.
HeLa cell is a human cervical cancer cell line, and belongs to epithelial tumor cell line; HUVEC is a human umbilical vein endothelial cell, and belongs to primary endothelial cell; both types of cells express all subtypes except for JAK3.
The change of JAK kinase activity has no significant influence on other cell types except for the immune cells, and both cell models mentioned above are mainly used to evaluate whether there are any other kinase targets besides JAK kinases or there are nonselective cell toxicities.
In this experiment, a cultured cell model is incubated with the test compounds at different concentrations for a specific duration. The effect of the treatment by the test compound on the growth of cells is detected using MTS assay.
MTS is performed according to routine procedure in a 96-well plate.
The model cells are inoculated into each well of the 96-well plate at an appropriate concentration (about 5000 cells/well). After 24 h, the test compounds are added at different concentration gradients (the highest final concentration is 40 μM). A solvent control (DMSO) and a negative control are also performed at the same time. Each experiment is repeated for 3 times. The cells are detected after cultured for another 72 h.
After all culture medium is aspirated out of the well, 100 μL fresh medium and 20 μL pre-formulated mixture of MTS and PMS (in a ratio of 20:1) are added to each well. After incubation at 37° C. for 2 h, it is then detected by a microplate reader (490 nm).
The cell growth inhibitory rate and GI50 of the test compound are calculated as above.
Based on the above method, cytological evaluation is performed to the compounds described herein (for the detection of CTLL-2 cell, the concentration of the test compound is 300 nM; […]).

Test [1] concerns IL-2/JAK1 & 3/STAT5 (CTLL-2). The test can be described thus: Intracellular activity assay, IL-2 induced STAT5 phosphorylation in CTLL-2. The note with it: Mus musculus; inhibition of STAT5 phosphorylation, CTLL-2, IL-2 10 ng/mL. It is filed as cell-based. The source says:
In this experiment, western blot (WB) and flow cytometry are used to evaluate the intracellular activities of the test compounds by comparing the relative levels of the signals of phosphorylated and non-phosphorylated STATs in 5 cell models, including U937, THP-1, CTLL-2, UT-7/EPO and activated human periphery blood cell (hPBC). The primary antibody and secondary antibody used in WB hybridization in this experiment are purchased from Cell Signaling Company (http://www.cellsignal.com). The fluorescence-labeled antibodies used in flow cytometry are purchased from eBiosciences Company (http://www.ebioscience.com).
CTLL-2 is a T-cell line, and its proliferation and growth depends on cytokine IL-2. […] The intracellular inhibitory activity of the compounds on JAK1/3 can be evaluated by detecting the change of the phosphorylation level of STAT5. […]
(2) Cell fixation and fluorescence labeling: the cells are fixed using paraformaldehyde (30 min), and subsequently treated for membrane permeability in chilled methanol (15 min). […]
(3) Detection by flow cytometry: the detection is carried out using Guava® easyCyte flow cytometer according to the instruction. The median fluorescent intensity (MFI) of a sample is detected using an appropriate cell population. […]

Sequence of Flt1 (P17948 27-1338, species assumed): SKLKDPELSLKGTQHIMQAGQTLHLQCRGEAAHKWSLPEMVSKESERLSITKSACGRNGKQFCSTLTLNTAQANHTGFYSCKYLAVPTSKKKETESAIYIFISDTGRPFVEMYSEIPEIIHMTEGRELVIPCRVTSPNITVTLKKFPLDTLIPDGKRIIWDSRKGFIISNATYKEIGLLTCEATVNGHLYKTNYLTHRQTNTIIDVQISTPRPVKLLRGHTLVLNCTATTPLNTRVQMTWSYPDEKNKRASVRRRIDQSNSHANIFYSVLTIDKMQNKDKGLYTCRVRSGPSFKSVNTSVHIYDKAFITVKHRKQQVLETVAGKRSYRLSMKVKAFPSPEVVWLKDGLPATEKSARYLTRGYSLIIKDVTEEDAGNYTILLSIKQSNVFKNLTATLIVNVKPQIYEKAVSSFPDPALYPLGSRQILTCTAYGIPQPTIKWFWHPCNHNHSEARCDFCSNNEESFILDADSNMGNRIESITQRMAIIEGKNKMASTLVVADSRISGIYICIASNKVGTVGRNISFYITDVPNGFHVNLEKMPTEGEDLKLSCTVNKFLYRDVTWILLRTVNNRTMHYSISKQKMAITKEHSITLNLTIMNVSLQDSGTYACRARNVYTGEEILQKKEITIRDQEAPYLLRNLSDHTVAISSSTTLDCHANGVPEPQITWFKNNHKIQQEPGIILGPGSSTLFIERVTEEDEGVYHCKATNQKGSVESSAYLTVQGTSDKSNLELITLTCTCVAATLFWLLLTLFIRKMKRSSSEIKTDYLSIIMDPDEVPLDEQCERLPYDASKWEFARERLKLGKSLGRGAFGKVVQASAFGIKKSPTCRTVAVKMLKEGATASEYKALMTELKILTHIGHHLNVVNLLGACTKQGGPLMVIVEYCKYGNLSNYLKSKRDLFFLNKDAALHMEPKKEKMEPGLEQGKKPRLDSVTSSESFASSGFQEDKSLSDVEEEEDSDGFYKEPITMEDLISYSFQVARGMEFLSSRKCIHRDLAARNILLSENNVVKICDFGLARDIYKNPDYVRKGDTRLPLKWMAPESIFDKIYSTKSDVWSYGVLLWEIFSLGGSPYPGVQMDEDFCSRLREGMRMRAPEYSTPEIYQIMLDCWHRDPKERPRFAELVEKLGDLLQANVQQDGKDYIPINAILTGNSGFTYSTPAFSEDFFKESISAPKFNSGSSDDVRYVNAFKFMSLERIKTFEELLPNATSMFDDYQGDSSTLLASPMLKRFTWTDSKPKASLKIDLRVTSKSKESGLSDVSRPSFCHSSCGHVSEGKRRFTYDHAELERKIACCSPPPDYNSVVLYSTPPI

With `C=CC(=O)N(C)c1cc(Nc2ncc(Cl)c(NCCCNC(=O)c3ccc(C#N)cc3)n2)ccc1F` [Example 7, N-(3-(5-chloro-2-(4-fluoro-3-(N-methylacrylamido)phenylamino)pyrimidinyl-4-amino)propyl)-4-cyano-benzamide], the IC50 against Flt1 is 0.698 µM. Moreover, in the test on HUVEC cells, the activity at 10 µM worked out at 94% and the GI50 is more than 40 µM. Also, the IC50 in test [1] is 0.08 µM.
In the case of `C=CC(=O)N(C)c1cc(Nc2ncc(Cl)c(NCCCNC(=O)c3ccc(C(F)(F)F)cc3)n2)ccc1F` [Example 22, N-(3-(5-chloro-2-(4-fluoro-3-(N-methylacrylamido)phenylamino)pyrimidinyl-4-amino)propyl)-4-trifluoromethylbenzamide], the IC50 on Flt1 is more than 10 µM. Besides, in the test with HUVEC cells, the activity at 10 µM was 116% and the GI50 is more than 40 µM.
In the case of `C=CC(=O)N(C)c1cc(Nc2ncc(Cl)c(NCCCNC(=O)c3ccc(F)cc3)n2)ccc1F` [Example 23, N-(3-(5-chloro-2-(4-fluoro-3-(N-methylacrylamido)phenylamino)pyrimidinyl-4-amino)propyl)-4-fluorobenzamide], half-maximal inhibition on Flt1 (IC50) required 1.23 µM. In the test on HUVEC cells, the activity at 10 µM stood at 112% and the GI50 was more than 40 µM. Also, the IC50 in test [1] came to 0.13 µM.
